Data set [1] deals with human adiponectin gene promoter. As to the kind of experiment: Luciferase reporter screening assay in C2C12 cells stably expressing the adiponectin promoter construct. The following applies: for concentration at which the greatest transactivation of the target promoter was obtained (maximum activity): stable C2C12 adiponectin promoter-luciferase line, commercial activator (positive control), luciferase read 48 hours after stimulation. In kind it is cell-based. As for the experimental part: To determine the luciferase activity, between 50000 and […] cells were seeded in each well and in a P24 plate in duplicate. After approximately 24 hours, the medium was removed from the cells and each well was washed with PBS 1x (because DMEM interferes in the measurement of the reporter gene activity). 100 µl of luciferase developing agent (Bright-GloTM Luciferase Assay system- Promega) were then added to each well. This reagent carries the reporter gene substrate and luminescence is generated as a product of the enzymatic reaction. […] To record the measurement of luciferase activity, the plate was shaken for 30 seconds right after adding the developing reagent and after 2 minutes, the volume was collected and transferred to a 96-well plate (P96), which was read in an illuminometer using the program with a duration of 5 seconds and the arbitrary luminescence units were recorded for each obtained clone or, in other words, for each stable cell line.
For the screening, 30000 cells per well were seeded in white P96 plates because these plates allow amplifying the luminescence signal and improving the reading. The cells were grown in 100 µl of hygromycin-free medium.
The cells were stimulated with the extracts 24 hours after the seeding in the following conditions: • cells to which only complete medium had been added (baseline transcription), • cells to which medium had been added in which the extracts to be assayed are dissolved (vehicle), • cells to which a known commercial activator of the target promoter had been added, thus having a positive control of the transcriptional activation and of the screening protocol and which are useful as a reference when screening those positive extracts increasing the activity of the promoters to be studied, because they provide an activation ratio which is calculated as follows: by dividing the average luminescence signal increase in the presence of the commercial activator by the average luminescence signal provided by the baseline activity of the target promoter in the presence of the vehicle. […]
The luciferase activity directed by the target promoters was developed 48 hours after the stimulation with the extracts, according to the protocol described in example 4, but modified such that once the medium was removed from the cells and they were washed with PBS 1x, 40 µl of luciferase developing reagent were added to each well and the plate was read after 2 minutes.
Luminescence values measured in RLUs (Relative Luciferase Units) obtained in the presence of each of the marine extracts which have been assayed were then plotted against the average luminescence signal obtained in baseline conditions (in the presence of the vehicle). […]
(A reporter such as luciferase makes a cellular process visible.)

Data set [2] relates to C2C12 cells. As to the kind of experiment: Toxicity of the commercial activators for the cells in the screening assay. Format: cell-based, Mus musculus.

As for `O=c1c(-c2ccc(O)cc2)coc2cc(O)ccc12` [daidzein], the “potency in the screening assays (comparison in words)” value in data set [1] (comparison of commercial activators of the adiponectin promoter) is “more potent than RGZ”. Moreover, the “concentration at which the greatest transactivation of the target promoter was obtained (maximum activity)” value (from here on “concentration”) in data set [1] was 20 µM. Further, in data set [2], the “toxicity for the cells (comparison in words)” value is “less toxic for the cells than Genistein”. In the case of `CN(CCOc1ccc(CC2SC(=O)NC2=O)cc1)c1ccccn1` (centres unmarked) [rosiglitazone], the “concentration” value in data set [1] worked out at 20 µM.

As for `O=c1c(-c2ccc(O)cc2)coc2cc(O)cc(O)c12` [genistein], in data set [1], the “concentration” value is listed as 20 µM.

For the origin of these results see patent EP2020447A1, “Method for identifying compounds modulating adiponectin gene expression” (priority 2007, dated 2009).
